Key:
WT=HIVHXB2 = test: Antiviral assay in MT-4 cells (MTT), WT virus; type: cell-based, HIV; details: Human immunodeficiency virus 1, MT4, 120 h, HIVHXB2, 5 days
Description: (§1) MT-4 cells were obtained from the AIDS Research and Reference Reagent Program (ARRRP, Division of AIDS, NIAID, NIH: MT-4 from Dr. D. Richman). Cells were propagated in RPMI 1640 supplemented with 10% fetal bovine serum, 50U of penicillin and 50 μg of streptomycin per ml (Invitrogen, Carlsbad Calif.). The following HIV viruses were used for testing of antiviral potency of compounds: WT=HIVHXB2; recombinant HIVHXB2 virus from drug resistant patient isolates; HIVmutant10 (16 mutations); HIVmutant8 (14 mutations); HIVmutant9 (10 mutations).
(§2) The potency of test compound was determined as previously described (ref 1-3) with minor modifications. MT-4 cells (1.5×10^4/ml) were exposed to 200 50 % tissue culture infective doses (TCID50) of viruses in the presence of various concentrations of test compound in 96 well microtiter plates and incubated at 37° C. for 5 days. 3-(4,5-dimethylthiazol-2-yl)-2,5-diphenytetrazolium bromide (MTT) solution was added to a final concentration of 0.75 mg/ml, and plates were incubated 1 hour. After incubation cells were dissolved in isopropanol/Triton-X 100/HCl (1000:50:25) solution. Absorbance was monitored in a microplate reader (Spectramax, Molecular Devices) at 540 nm and 690 nm. Cytotoxicity of compounds was tested in a similar assay in the absence of virus.

mutant HIV PR (Mutant 9) = mutant HIV PR (Mutant 9) (Human immunodeficiency virus type 1 group M subtype B, UniProt P04585); test: HIV PR inhibition assay, Mutant 9; type: biochemical; details: read-out: Ki Mutant 9; recombinant mutant HIV PR, fluorogenic substrate, pH 6.5
Description: (§3) Expression and purification of WT and mutant HIV PR. Recombinant wild type and mutant HIV PRs were expressed using pET21 vector (Novagen) in E. coli cells, and purified and refolded as described previously (Gulnik et al, 1995). The cells were resuspended in 50 mM tris-HCl buffer, pH 8.0, 25 mM NaCl, 0.2% β-mercaptoethanol (buffer A), sonicated and centrifuged. Inclusion bodies were washed first with buffer A, then with buffer A containing respectively 0.1% Triton X-100, 1 M NaCl, 1 M urea, and finally with buffer A alone. Purified inclusion bodies were solubilized by addition of buffer A containing 8 M urea at room temperature. The solution was clarified by centrifugation and loaded onto 2.6×9.5 cm Q-Sepharose column. Flow-through fractions were collected and dialyzed against 3 changes of refolding buffer, which consists of 25 mM Na-phosphate, pH 7.0, 25 mM NaCl, 0.2% β-mercaptoethanol and 10% glycerol, aliquoted and stored at −80° C.
(§4) Inhibition constants were determined using the fluorogenic substrate ArgGlu(EDANS)[…]DABCYL)Arg (Amichem, USA). HIV Protease was preincubated for 0.5-1 min at ambient temperature on a 96 well plate with different concentrations of inhibitor in 0.05 M sodium phosphate buffer, pH 6.5, containing 20 mM NaCl, 2 mM DTT and 0.01% Tween-20. The reaction was initiated by the addition of substrate. Final enzyme concentration was 2-5 nM for WT and 2-30 nM for mutants. Substrate concentration was 20 uM and DMSO concentration 2%. The increase in fluorescence intensity at the emission maximum of 520 nm (excitation wavelength 340 nm, cut-off filter 495 nm) was monitored as a function of time using a Spectramax Gemini fluorescence plate reader (Molecular Devices, CA USA). The initial rate of hydrolysis was calculated by first-degree polynomial fit using SoftMAX operating software. Data were fitted to the Michaelis-Menten equation for competitive inhibitors. For tight-binding inhibitors the data were fitted by nonlinear regression analysis to the equation V=V0/2Et({[Ki(1+S/Km)+It−Et]^2+4Ki(1+S/Km)Et}^1/2−[Ki(1+S/Km)+It−Et]) (Williams and Morrison, 1979) with the program GraFit, version 5 (Erithacus Software Limited, UK), where V and V0 are initial velocities with and without inhibitor, Km is the Michaelis-Menten constant and S, Et and It are the concentrations of substrate, active enzyme and inhibitor respectively.

[1] = test system: HIVmutant8 (14 mutations); test: Antiviral assay in MT-4 cells (MTT), mutant 8 virus; type: cell-based, HIV; details: Human immunodeficiency virus 1, MT4, 120 h, read-out: IC50 Mutant 8
Description: as §1, §2

wild type HIV PR = biological target: T1, wild type HIV PR (Human immunodeficiency virus type 1 group M subtype B, UniProt P04585); test: HIV PR inhibition assay, wild type; type: biochemical
T1 construct: Recombinant wild type and mutant HIV PRs were expressed using pET21 vector (Novagen) in E. coli cells; made in house
Description: as §3, §4

[2] = test system: HIVmutant10 (16 mutations); test: Antiviral assay in MT-4 cells (MTT), mutant 10 virus; type: cell-based, HIV; details: Human immunodeficiency virus 1, MT4, 120 h, read-out: IC50 Mutant 10
Description: as §1, §2

[3] = test system: HIVmutant9 (10 mutations); test: Antiviral assay in MT-4 cells (MTT), mutant 9 virus; type: cell-based, HIV; details: Human immunodeficiency virus 1, MT4, 120 h, read-out: IC50 Mutant 9
Description: as §1, §2

mutant HIV PR (Mutant 8) = mutant HIV PR (Mutant 8) (Human immunodeficiency virus type 1 group M subtype B, UniProt P04585); test: HIV PR inhibition assay, Mutant 8; type: biochemical; details: read-out: Ki Mutant 8; recombinant mutant HIV PR, fluorogenic substrate, pH 6.5
Description: as §3, §4

[4] = biological target: mutant HIV PR (Mutant 10) (Human immunodeficiency virus type 1 group M subtype B, UniProt P04585); test: HIV PR inhibition assay, Mutant 10; type: biochemical; details: read-out: Ki Mutant 10; recombinant mutant HIV PR, fluorogenic substrate, pH 6.5
Description: as §3, §4

Compound	IC50 (WT=HIVHXB2)	Ki (mutant HIV PR (Mutant 9))	IC50 [1]	Ki (wild type HIV PR)	IC50 [2]	IC50 [3]	Ki (mutant HIV PR (Mutant 8))	Ki [4]
C=CCN(C=C1C(=O)Nc2ccc(S(=O)(=O)N(CC(C)C)CC(O)C(Cc3ccccc3)NC(=O)OC3COC4OCCC34)cc21)C1CCCC1 (centres unmarked) [Compound 116]	15 nM	< 0.1 nM	50 nM	< 0.1 nM	150 nM	20 nM	< 0.3 nM	< 1 nM
CCOC(=O)C(NC=C1C(=O)Nc2ccc(S(=O)(=O)N(CC(C)C)CC(O)C(Cc3ccccc3)NC(=O)OC3COC4OCCC34)cc21)C(C)C (centres unmarked) [Compound 133]	17 nM	0.4 nM	19 nM	0.14 nM	27 nM	16 nM	< 0.3 nM	3.1 nM
CC(C)CN(C[C@@H](O)[C@H](Cc1ccccc1)NC(=O)O[C@H]1CO[C@H]2OCC[C@H]21)S(=O)(=O)c1ccc2c(c1)/C(=C/N(C)C)C(=O)N2 [Compound 21, {1-Benzyl-3-[(3-dimethylaminomethylene-2-oxo-2,3-dihydro-1H-indole-5-sulfonyl)-isobutyl-amino]-2-hydroxy-propyl}-carbamic acid hexahydro-furo[2,3-b]furan-3-yl ester]	93 nM	< 0.1 nM	90 nM	< 0.1 nM	70 nM	65 nM	< 0.3 nM	< 1 nM
CCCC(C)NC=C1C(=O)Nc2ccc(S(=O)(=O)N(CC(C)C)CC(O)C(Cc3ccccc3)NC(=O)OC3COC4OCCC34)cc21 (centres unmarked) [Compound 108]	9 nM	< 0.1 nM	35 nM	< 0.1 nM	80 nM	15 nM	< 0.3 nM	< 1 nM

— patent US7807845B2, “Resistance-repellent retroviral protease inhibitors” (priority 2004, dated 2010)
